In patent publication US5504085A, “Triazolo quinoxalines and their preparation and use” (Novo Nordisk A/S, priority 1991, dated 1996):
Values after ≈ are worked out from the molar mass of the structure shown.

Legend:
[1] = biological target: AMPA receptors (rat cerebral cortical membrane homogenate); assay: 3H-AMPA binding (Test 1): displacement of 3H-AMPA from AMPA type receptors; settings: 5 nM 3H-AMPA, 0° C., 30 min, pH 7.1
Protocol: The affinity of a substance for one or more of the different types of excitatory amino acid receptors may be studied in simple binding experiments. In essense, the method involves incubation of a particular selected radiolabelled ligand and the particular specific substance to be investigated with brain homogenate which contains the receptor. Measurement of receptor occupancy is made by determination of the radioactivity bound to the homogenate and subtraction of nonspecific binding.
AMPA receptor binding may be studied by using ^3 H-AMPA as radioligand.
The pharmacological properties of the compounds of the present invention can be illustrated by determining their capability for displacing radioactively labelled 2-amino-3-hydroxy-5-methyl-4-isoxazolepropionic acid (AMPA) from the AMPA type receptors. […]
500 μl of thawed rat cerebral cortical membrane homogenate in Tris-HCl (30 mM), CaCI2 (2.5 mM) and KSCN (100 mM) pH 7.1 were incubated at 0° C. for 30 min. with 25 μl ^3 H-AMPA (5 nM final concentration) and the test compound and buffer. Non specific binding was determined by incubation with L-glutamic acid ([…] final concentration). […] Bound radioactivity was measured by scintillation counting. IC50 was determined by Hill analysis of at least four concentrations of test compound.

[2] = system: quisqualic acid stimulated spreading depression in chicken retina; assay: Spreading depression (Test 2): inhibition of quisqualic acid stimulated spreading depression in chicken retina; type: cell-based; settings: Gallus gallus, 0.25 h, quisqualate 1 μg/ml, 26° C., 15 min incubation with test compound, read-out: TEST 2 IC50 (50% maximal inhibition of quisqualic acid stimulated spreading depression)
Description: The influence of glutamic add analogues on secondary effects of glutamate receptor interactions may be studied in vitro by using the phenomenon of spreading depression in chicken retina. Such experiments will provide information as to the efficades (agonist/antagonist) of the test substances. This is in contrast to binding studies, which only provide information on the affinities of the compounds for the receptor.
The pharmacological properties of the compounds of the present invention can be illustrated by determining their capability for displacing radioactively labelled 2-amino-3-hydroxy-5-methyl-4-isoxazolepropionic acid (AMPA) from the AMPA type receptors.
The antagonism is measured by determining the IC50 value which represents the concentration which produces a ,50% maximal inhibition of quisqualic acid stimulated spreading depression in chicken retina.
Spreading depression (Test 2) […]
The eyes are initially incubated in normal P.S.S. for 15-30 min. and then transferred to P.S.S. containing quisqualate (1μ g/ml). […] The time taken for an S.D. to start in each eye is measured.
After a further 15 min. of incubation in normal P.S.S. the eyes are transferred to normal P.S.S. containing the test compound and incubated for 15 min. […] The time taken for an S.D. to start in each eye is again measured. […]

Compound | TEST 1 IC50 (displacement of 50% of the specific binding of 3H-AMPA) [1] [µg/mL] | IC50 [2] [µg/mL]
N#Cc1ccc2c(c1)[nH]c(=O)c1n[nH]c(=O)n12 [Example 4, 7-Cyano 1,2,4!triazolo 4,3-a!quinoxaline-1,4(2H, 5H)-dione] | 0.09 | 0.47 (≈ 2.07 µM)
O=c1[nH]c2cc(C(F)(F)F)ccc2n2c(=O)[nH]nc12 [Example 3, 7-Trifluoromethyl 1,2, 4!triazolo 4,3-a!quinoxaline-1,4(2H,5H)-dione] | 1.3 | 1.3 (≈ 4.81 µM)
